pIC50: −log10 of the molar value. Values joined by “and” are separate entries in the source; they are usually repeats but may differ in a detail not shown here. Equal values may be shown once.
System: 186277-243-T-J2-PDC complex spheroid growth
Test: Anticancer human tumor 186277-243-T-J2-PDC patient-derived colon adenocarcinoma cell line growth inhibition [AhR]
Conditions: for viability, T/C: stronger effect = lower value
Outline: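 Spheroids combined tumor cells with HUVEC endothelial cells and human MSCs as stroma. AhR antagonists were paired with standard or investigational drugs, each dosed in half-log steps down from near clinical Cmax, or from 10 microM where Cmax was unknown.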

[1] = curve of first compound, second compound 0.1 µM
[2] = curve of first compound, second compound 0.316 µM
[3] = curve of first compound, second compound 1 µM
[4] = curve of first compound, second compound 3.16 µM
[5] = curve of first compound, second compound 10 µM
[6] = second compound 0.1 µM, first compound 0.0316 µM
[7] = second compound 0.1 µM, first compound 0.1 µM
[8] = second compound 0.1 µM, first compound 0.316 µM
[9] = second compound 0.1 µM, first compound 1 µM
[10] = second compound 0.1 µM, first compound 3.16 µM
[11] = second compound 0.1 µM, first compound 10 µM
[12] = second compound 0.316 µM, first compound 0.0316 µM
[13] = second compound 0.316 µM, first compound 0.1 µM
[14] = second compound 0.316 µM, first compound 0.316 µM
[15] = second compound 0.316 µM, first compound 1 µM
[16] = second compound 0.316 µM, first compound 3.16 µM
[17] = second compound 0.316 µM, first compound 10 µM
[18] = second compound 1 µM, first compound 0.0316 µM
[19] = second compound 1 µM, first compound 0.1 µM
[20] = second compound 1 µM, first compound 0.316 µM
[21] = second compound 1 µM, first compound 1 µM
[22] = second compound 1 µM, first compound 3.16 µM
[23] = second compound 1 µM, first compound 10 µM
[24] = second compound 3.16 µM, first compound 0.0316 µM
[25] = second compound 3.16 µM, first compound 0.1 µM
[26] = second compound 3.16 µM, first compound 0.316 µM
[27] = second compound 3.16 µM, first compound 1 µM
[28] = second compound 3.16 µM, first compound 3.16 µM
[29] = second compound 3.16 µM, first compound 10 µM
[30] = second compound 10 µM, first compound 0.0316 µM
[31] = second compound 10 µM, first compound 0.1 µM
[32] = second compound 10 µM, first compound 0.316 µM
[33] = second compound 10 µM, first compound 1 µM
[34] = second compound 10 µM, first compound 3.16 µM
[35] = second compound 10 µM, first compound 10 µM
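Note: spheroids exposed to compounds for seven days before the viability read.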
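Throughout, for viability, T/C: luminescent signal used as a stand-in for viable cell amount; 100% = DMSO vehicle control wells.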

SMILES: NS(=O)(=O)OCC1CC(n2ccc3c(NC4CCc5ccccc54)ncnc32)CC1O (centres undefined)
- viability, T/C (compound 0.0316 µM): 89.3% and 94.6% and 101%
- viability, T/C (compound 0.1 µM): 102% (2×) and 88.4%
- viability, T/C (compound 0.316 µM): 89.2% and 88.5% and 60.5%
- viability, T/C (compound 1 µM): 45.8% and 44.2% and 18.4%
- viability, T/C (compound 3.16 µM): 20.8% and 25.7% and 4.9%
- viability, T/C (compound 10 µM): 5.48% and 7.98% and 1.51%
- pIC50 (curve of compound): 6.02 and 6.03 and 6.39

SMILES: COc1cccc2c1C(=O)c1c(O)c3c(c(O)c1C2=O)CC(O)(C(=O)CO)CC3OC1CC(N)C(O)C(C)O1 (centres undefined) + Cc1cncc(-c2nc(NCCc3c[nH]c4ccccc34)c3ncn(C(C)C)c3n2)c1
- pIC50 [1]: 6.70
- pIC50 [2]: 6.77
- pIC50 [3]: 6.79
- pIC50 [4]: 6.90
- pIC50 [5]: > 7.50
- viability, T/C [6]: 107%
- viability, T/C [7]: 78.6%
- viability, T/C [8]: 32.6%
- viability, T/C [9]: 0.46%
- viability, T/C [10]: 0.03%
- viability, T/C [11]: 0.25%
- viability, T/C [12]: 110%
- viability, T/C [13]: 70.4%
- viability, T/C [14]: 28.2%
- viability, T/C [15]: 0.27%
- viability, T/C [16]: 0.04%
- viability, T/C [17]: 0.22%
- viability, T/C [18]: 93.2%
- viability, T/C [19]: 71.3%
- viability, T/C [20]: 21.2%
- viability, T/C [21]: 0.08%
- viability, T/C [22]: 0.32%
- viability, T/C [23]: 0.26%
- viability, T/C [24]: 83.5%
- viability, T/C [25]: 59.9%
- viability, T/C [26]: 10.8%
- viability, T/C [27]: 0.05%
- viability, T/C [28]: 0.21%
- viability, T/C [29]: 0.79%
- viability, T/C [30]: 21.9%
- viability, T/C [31]: 18.5%
- viability, T/C [32]: 3.26%
- viability, T/C [33]: 0.12%
- viability, T/C [34]: 0.49%
- viability, T/C [35]: 0.31%

SMILES: CC(C)c1c(-c2ccccc2)nc2c(C#N)c[nH]n2c1=O + Cc1ccccc1N=Nc1ccc(NC(=O)c2ccnn2C)c(C)c1
- pIC50 [1]: < 5.00
- pIC50 [2]: < 5.00
- pIC50 [3]: < 5.00
- pIC50 [4]: < 5.00
- pIC50 [5]: < 5.00
- viability, T/C [6]: 97.4%
- viability, T/C [7]: 110%
- viability, T/C [8]: 104%
- viability, T/C [9]: 105%
- viability, T/C [10]: 109%
- viability, T/C [11]: 97.5%
- viability, T/C [12]: 103%
- viability, T/C [13]: 104%
- viability, T/C [14]: 103%
- viability, T/C [15]: 98%
- viability, T/C [16]: 112%
- viability, T/C [17]: 98%
- viability, T/C [18]: 98.9%
- viability, T/C [19]: 106%
- viability, T/C [20]: 115%
- viability, T/C [21]: 96.4%
- viability, T/C [22]: 98.3%
- viability, T/C [23]: 104%
- viability, T/C [24]: 95.2%
- viability, T/C [25]: 108%
- viability, T/C [26]: 94.3%
- viability, T/C [27]: 99.7%
- viability, T/C [28]: 99.7%
- viability, T/C [29]: 98.7%
- viability, T/C [30]: 102%
- viability, T/C [31]: 97.2%
- viability, T/C [32]: 92.6%
- viability, T/C [33]: 101%
- viability, T/C [34]: 85.8%
- viability, T/C [35]: 90.1%

SMILES: CCN(c1cc(-c2ccc(CN3CCOCC3)cc2)cc(C(=O)NCc2c(C)cc(C)[nH]c2=O)c1C)C1CCOCC1
- viability, T/C (compound 0.00949 µM): 107% and 112% and 86.8%
- viability, T/C (compound 0.03 µM): 99.7% and 104% and 85%
- viability, T/C (compound 0.0949 µM): 95.2% and 112% and 74.4%
- viability, T/C (compound 0.3 µM): 98.2% and 109% and 93.8%
- viability, T/C (compound 0.949 µM): 101% and 112% and 91.5%
- viability, T/C (compound 3 µM): 106% and 104% and 89.5%
- pIC50 (curve of compound): < 5.52
